Measured values as given in patent publication US20220306695A1, “COMPSTATIN ANALOGUES AND THEIR MEDICAL USES” (priority 2019, published 2022).
Starred links: 1 amine or outer side, 2 acyl side, 3 side chain; linkers in the order of their positions; H or OH if unused. Positions of bridges follow the written chain, without caps; N, C: chain ends. Non-standard residues stand in square brackets, D forms with d. Residues, ends and D or L forms follow the SMILES beside them. Groups on a side chain read outwards from the residue. *: point of attachment. X1 = O=C(O)CCCCCCCCCCCCCCC(=O)N1CCN(CC(=O)*)CC1; C20 diacid = O=C(O)CCCCCCCCCCCCCCCCCCC(=O)*; Trp(1-Me) = Cn1cc(C[C@H](N)C(=O)O)c2ccccc21; C18 diacid = O=C(O)CCCCCCCCCCCCCCCCC(=O)*; C16 diacid = O=C(O)CCCCCCCCCCCCCCC(=O)*; γGlu = O=C(O)[C@H](CCC(=O)[*:2])N[*:1]; AEEA = NCCOCCOCC(=O)O; Sar = CNCC(=O)O

These molecules were tested on classical complement pathway (assay: In vitro haemolysis assay (inhibition of classical complement pathway)). Details: Table 3; human serum, sensitized sheep red blood cells; read-out: IC50[nM], in vitro analysis of inhibition of hemolysis.
Assay type: cell-based, human
How it was run: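 Serially diluted compound (9 points) was preincubated 15 min at room temperature with diluted human serum, titrated per batch to give 70-90% maximal haemolysis, in Tris/casein buffer pH 7.4 with Mg2+/Ca2+. Antibody-sensitized sheep erythrocytes were then added for 30 min at 37° C, and the reaction was stopped with EDTA. Haemolysis was read at A405, with IC50 from 4PL fit.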
With `CC[C@H](C)[C@@H]1NC(=O)[C@@H](NC(=O)CN(C)C(=O)[C@H](CCC(=O)O)NC(=O)CNC(C)=O)CSSC[C@@H](C(=O)N[C@H](C(=O)N[C@@H](CCC(=O)O)C(=O)N[C@@H](C)C(N)=O)[C@@H](C)O)NC(=O)[C@H](CCCNC(=N)N)NC(=O)[C@H](Cc2c[nH]cn2)NC(=O)[C@H](CCC(=O)O)NC(=O)CNC(=O)[C@H](Cc2c[nH]c3ccccc23)NC(=O)[C@H](CC(=O)O)NC(=O)[C@H](CCC(N)=O)NC(=O)[C@H](Cc2cn(C)c3ccccc23)NC1=O` [Compound 88] (Ac-GE[Sar]CI[Trp(1-Me)]QDWGEHRCTEA-NH2; disulfide 4-14) the IC50 was less than 100 nM. Molecule `CC[C@H](C)[C@@H]1NC(=O)[C@@H](NC(=O)CN(C)C(=O)[C@H](CCC(=O)O)NC(=O)[C@H](CO)NC(C)=O)CSSC[C@@H](C(=O)N[C@H](C(=O)N[C@@H](CCC(=O)O)C(=O)N[C@@H](C)C(N)=O)[C@@H](C)O)NC(=O)[C@H](CCCNC(=N)N)NC(=O)[C@H](Cc2c[nH]cn2)NC(=O)[C@H](CCC(=O)O)NC(=O)CN(C)C(=O)[C@H](Cc2c[nH]c3ccccc23)NC(=O)[C@H](CCC(=O)O)NC(=O)[C@H](CCC(N)=O)NC(=O)[C@H](Cc2cn(C)c3ccccc23)NC1=O` [Compound 89, Ac-SE[Sar]C(1)I[1-Me-Trp]QEW[Sar]EHRC(1)TEA-NH2] (Ac-SE[Sar]CI[Trp(1-Me)]QEW[Sar]EHRCTEA-NH2; disulfide 4-14) has an IC50 of less than 100 nM. With `CC[C@H](C)[C@@H]1NC(=O)[C@@H](NC(=O)CN(C)C(=O)[C@H](CCC(=O)O)NC(=O)[C@H](CO)NC(C)=O)CSSC[C@@H](C(=O)N(C)CC(=O)N[C@@H](CCC(=O)O)C(=O)N[C@@H](C)C(N)=O)NC(=O)[C@H](CCCNC(=N)N)NC(=O)[C@H](Cc2c[nH]cn2)NC(=O)[C@H](CCC(=O)O)NC(=O)CNC(=O)[C@H](Cc2c[nH]c3ccccc23)NC(=O)[C@H](CCC(=O)O)NC(=O)[C@H](CCC(N)=O)NC(=O)[C@H](Cc2cn(C)c3ccccc23)NC1=O` [Compound 90] (Ac-SE[Sar]CI[Trp(1-Me)]QEWGEHRC[Sar]EA-NH2; disulfide 4-14) the IC50 was less than 250 nM. Molecule `CC[C@H](C)[C@@H]1NC(=O)[C@@H](NC(=O)CN(C)C(=O)[C@H](N)Cc2ccc(O)cc2)CSSC[C@@H](C(=O)N[C@H](C(=O)N[C@@H](CCC(=O)O)C(=O)N[C@@H](C)C(N)=O)[C@@H](C)O)NC(=O)[C@H](CCCNC(=N)N)NC(=O)[C@H](Cc2c[nH]cn2)NC(=O)[C@H](CCC(=O)O)NC(=O)CNC(=O)[C@H](Cc2c[nH]c3ccccc23)NC(=O)[C@H](CC(=O)O)NC(=O)[C@H](CCC(N)=O)NC(=O)[C@H](Cc2cn(C)c3ccccc23)NC1=O` [Compound 91] (H-[dY][Sar]CI[Trp(1-Me)]QDWGEHRCTEA-NH2; disulfide 3-13) has an IC50 of less than 100 nM. In the case of `CC[C@H](C)[C@H](NC(C)=O)C(=O)N[C@H]1CSSC[C@@H](C(=O)N[C@H](C(=O)N[C@@H](CCC(=O)O)C(=O)NCC(=O)N[C@@H](CCCCNC(=O)CC[C@H](NC(=O)CCCCCCCCCCCCCCC(=O)O)C(=O)O)C(N)=O)[C@@H](C)O)NC(=O)[C@H](CCCNC(=N)N)NC(=O)[C@H](Cc2c[nH]cn2)NC(=O)[C@H](CCC(=O)O)NC(=O)CNC(=O)[C@H](Cc2c[nH]c3ccccc23)NC(=O)[C@H](CC(=O)O)NC(=O)[C@H](CCC(N)=O)NC(=O)[C@H](Cc2c[nH]c3ccccc23)NC(=O)[C@H]([C@@H](C)CC)NC1=O` [Compound 92] (Ac-ICIWQDWGEHRCTEGK([γGlu-C16 diacid])-NH2; disulfide 2-12), the IC50 is reported as less than 1000 nM. Work on `CC[C@H](C)[C@H](NC(C)=O)C(=O)N[C@H]1CSSC[C@@H](C(=O)N[C@H](C(=O)N[C@@H](CCC(=O)O)C(=O)NCC(=O)N[C@@H](CCCCNC(=O)COCCOCCNC(=O)COCCOCCNC(=O)CC[C@H](NC(=O)CCCCCCCCCCCCCCC(=O)O)C(=O)O)C(N)=O)[C@@H](C)O)NC(=O)[C@H](CCCNC(=N)N)NC(=O)[C@H](Cc2c[nH]cn2)NC(=O)[C@H](CCC(=O)O)NC(=O)CNC(=O)[C@H](Cc2c[nH]c3ccccc23)NC(=O)[C@H](CC(=O)O)NC(=O)[C@H](CCC(N)=O)NC(=O)[C@H](Cc2c[nH]c3ccccc23)NC(=O)[C@H]([C@@H](C)CC)NC1=O` [Compound 93] (Ac-ICIWQDWGEHRCTEGK([AEEA-AEEA-γGlu-C16 diacid])-NH2; disulfide 2-12) yielded an IC50 of less than 500 nM. `CC[C@H](C)[C@H](NC(C)=O)C(=O)N[C@H]1CSSC[C@@H](C(=O)N[C@H](C(=O)N[C@@H](CCC(=O)O)C(=O)NCC(=O)N[C@@H](CCCCNC(=O)COCCOCCNC(=O)COCCOCCNC(=O)CN2CCN(C(=O)CCCCCCCCCCCCCCC(=O)O)CC2)C(N)=O)[C@@H](C)O)NC(=O)[C@H](CCCNC(=N)N)NC(=O)[C@H](Cc2c[nH]cn2)NC(=O)[C@H](CCC(=O)O)NC(=O)CNC(=O)[C@H](Cc2c[nH]c3ccccc23)NC(=O)[C@H](CC(=O)O)NC(=O)[C@H](CCC(N)=O)NC(=O)[C@H](Cc2c[nH]c3ccccc23)NC(=O)[C@H]([C@@H](C)CC)NC1=O` [Compound 95] (Ac-ICIWQDWGEHRCTEGK([AEEA-AEEA-X1])-NH2; disulfide 2-12) showed an IC50 of less than 500 nM. `CC[C@H](C)[C@H](NC(C)=O)C(=O)N[C@H]1CSSC[C@@H](C(=O)N[C@H](C(=O)N[C@@H](CCC(=O)O)C(=O)NCC(=O)N[C@@H](CCCCNC(=O)COCCOCCNC(=O)COCCOCCNC(=O)CC[C@H](NC(=O)CCCCCCCCCCCCCCCCC(=O)O)C(=O)O)C(N)=O)[C@@H](C)O)NC(=O)[C@H](CCCNC(=N)N)NC(=O)[C@H](Cc2c[nH]cn2)NC(=O)[C@H](CCC(=O)O)NC(=O)CNC(=O)[C@H](Cc2c[nH]c3ccccc23)NC(=O)[C@H](CC(=O)O)NC(=O)[C@H](CCC(N)=O)NC(=O)[C@H](Cc2c[nH]c3ccccc23)NC(=O)[C@H]([C@@H](C)CC)NC1=O` [Compound 96] (Ac-ICIWQDWGEHRCTEGK([AEEA-AEEA-γGlu-C18 diacid])-NH2; disulfide 2-12) showed an IC50 of less than 1000 nM. For `CC[C@H](C)[C@H](NC(C)=O)C(=O)N[C@H]1CSSC[C@@H](C(=O)N[C@H](C(=O)N[C@@H](CCC(=O)O)C(=O)NCC(=O)N[C@@H](CCCCNC(=O)COCCOCCNC(=O)COCCOCCNC(=O)CC[C@H](NC(=O)CCCCCCCCCCCCCCCCCCC(=O)O)C(=O)O)C(N)=O)[C@@H](C)O)NC(=O)[C@H](CCCNC(=N)N)NC(=O)[C@H](Cc2c[nH]cn2)NC(=O)[C@H](CCC(=O)O)NC(=O)CNC(=O)[C@H](Cc2c[nH]c3ccccc23)NC(=O)[C@H](CC(=O)O)NC(=O)[C@H](CCC(N)=O)NC(=O)[C@H](Cc2c[nH]c3ccccc23)NC(=O)[C@H]([C@@H](C)CC)NC1=O` [Compound 98] (Ac-ICIWQDWGEHRCTEGK([AEEA-AEEA-γGlu-C20 diacid])-NH2; disulfide 2-12), the IC50 was less than 500 nM. With `CC[C@H](C)[C@H](NC(=O)[C@H](C)NC(=O)[C@H](CO)NC(=O)[C@H](CO)NC(=O)[C@H](CCC(=O)O)NC(=O)CCCCCCCCCCCCCCC(=O)O)C(=O)N[C@H]1CSSC[C@@H](C(=O)N[C@H](C(=O)N[C@@H](CCC(=O)O)C(=O)NCC(=O)N[C@@H](CCC(=O)O)C(N)=O)[C@@H](C)O)NC(=O)[C@H](CCCNC(=N)N)NC(=O)[C@H](Cc2c[nH]cn2)NC(=O)[C@H](CCC(=O)O)NC(=O)CNC(=O)[C@H](Cc2c[nH]c3ccccc23)NC(=O)[C@H](CC(=O)O)NC(=O)[C@H](CCC(N)=O)NC(=O)[C@H](Cc2c[nH]c3ccccc23)NC(=O)[C@H]([C@@H](C)CC)NC1=O` [Compound 99] ({C16 diacid}-ESSAICIWQDWGEHRCTEGE-NH2; disulfide 6-16) the IC50 was less than 250 nM. Work on `CC[C@H](C)[C@H](NC(=O)[C@H](C)NC(=O)[C@H](CO)NC(=O)CNC(=O)[C@H](CCCCNC(=O)COCCOCCNC(=O)COCCOCCNC(=O)CC[C@H](NC(=O)CCCCCCCCCCCCCCC(=O)O)C(=O)O)NC(C)=O)C(=O)N[C@H]1CSSC[C@@H](C(=O)N[C@H](C(=O)N[C@@H](CCC(=O)O)C(=O)NCC(=O)N[C@@H](CCC(=O)O)C(N)=O)[C@@H](C)O)NC(=O)[C@H](CCCNC(=N)N)NC(=O)[C@H](Cc2c[nH]cn2)NC(=O)[C@H](CCC(=O)O)NC(=O)CNC(=O)[C@H](Cc2c[nH]c3ccccc23)NC(=O)[C@H](CC(=O)O)NC(=O)[C@H](CCC(N)=O)NC(=O)[C@H](Cc2c[nH]c3ccccc23)NC(=O)[C@H]([C@@H](C)CC)NC1=O` [Compound 100] (Ac-K([AEEA-AEEA-γGlu-C16 diacid])GSAICIWQDWGEHRCTEGE-NH2; disulfide 6-16) yielded an IC50 of less than 500 nM. `CC[C@H](C)[C@H](NC(=O)[C@H](C)NC(=O)[C@H](CO)NC(=O)CNC(=O)[C@H](CCC(=O)O)NC(C)=O)C(=O)N[C@H]1CSSC[C@@H](C(=O)N[C@H](C(=O)N[C@@H](CCC(=O)O)C(=O)NCC(=O)N[C@@H](CCCCNC(=O)CC[C@H](NC(=O)CCCCCCCCCCCCCCC(=O)O)C(=O)O)C(N)=O)[C@@H](C)O)NC(=O)[C@H](CCCNC(=N)N)NC(=O)[C@H](Cc2c[nH]cn2)NC(=O)[C@H](CCC(=O)O)NC(=O)CNC(=O)[C@H](Cc2c[nH]c3ccccc23)NC(=O)[C@H](CC(=O)O)NC(=O)[C@H](CCC(N)=O)NC(=O)[C@H](Cc2c[nH]c3ccccc23)NC(=O)[C@H]([C@@H](C)CC)NC1=O` [Compound 101] (Ac-EGSAICIWQDWGEHRCTEGK([γGlu-C16 diacid])-NH2; disulfide 6-16) showed an IC50 of less than 500 nM. `CC[C@H](C)[C@@H]1NC(=O)[C@@H](NC(=O)[C@H](Cc2ccc(O)cc2)NC(=O)[C@H](C)NC(=O)[C@H](CO)NC(=O)CNC(=O)[C@H](CCC(=O)O)NC(C)=O)CSSC[C@@H](C(=O)N(C)CC(=O)N[C@@H](CCC(=O)O)C(=O)NCC(=O)N[C@@H](CCCCN)C(=O)N[C@@H](CCCCNC(=O)CC[C@H](NC(=O)CNC(=O)CC[C@H](NC(=O)CCCCCCCCCCCCCCCCC(=O)O)C(=O)O)C(=O)O)C(N)=O)NC(=O)[C@H](CCCNC(=N)N)NC(=O)[C@H](Cc2c[nH]cn2)NC(=O)[C@H](CCC(=O)O)NC(=O)CNC(=O)[C@H](Cc2c[nH]c3ccccc23)NC(=O)[C@H](CC(=O)O)NC(=O)[C@H](CCC(N)=O)NC(=O)[C@H](Cc2cn(C)c3ccccc23)NC1=O` [Compound 110] (Ac-EGSAYCI[Trp(1-Me)]QDWGEHRC[Sar]EGKK([γGlu-Gly-γGlu-C18 diacid])-NH2; disulfide 6-16) was tested, and the IC50 was less than 250 nM.
